# Assay results reported in patent US6737383B1, “Herbicidal oxadiazolidines” (priority 1999, dated 2004).
# Key:
# [1] = tested on: duck salad; experiment: Test B flood test duck salad; type: in vivo, Heteranthera limosa
# Method in brief: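 Flood test on plants grown to the 2-leaf stage; treated plants kept in greenhouse twelve to sixteen days, then visually rated against controls on a 0 (no effect) to 10 (complete control) scale.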
# [2] = tested on: green foxtail; experiment: Test E green foxtail; type: in vivo, Setaria viridis; conditions: Preemergence
# [3] = tested on: winter barley; experiment: Test E winter barley; type: in vivo, Hordeum vulgare; conditions: Preemergence
# [4] = tested on: sugar beet; experiment: Test B pre/postemergence sugar beet; type: in vivo, Beta vulgaris
# Method in brief: (§1)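 Response is a visual 0-to-10 score relative to untreated plants, where 0 means no effect and 10 means complete control, taken twelve to sixteen days after application. Treatments went onto soil at planting and onto foliage of 1- to 4-leaf plants, using a surfactant-containing non-phytotoxic solvent.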
# [5] = tested on: winter wheat; experiment: Test E winter wheat; type: in vivo, Triticum aestivum; conditions: Postemergence, 0 to 100 scale
# Method in brief: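 Postemergence: 60:40 sandy loam/greenhouse potting mix, 1- to 4-leaf stage. Formulation: solvent plus surfactant. Assessment: visual comparison with untreated controls at ~21–28 days.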
# [6] = tested on: Italian ryegrass; experiment: Test E Italian ryegrass; type: in vivo, Lolium multiflorum; conditions: Preemergence
# [7] = tested on: winter wheat; experiment: Test E winter wheat; type: in vivo, Triticum aestivum; conditions: Preemergence
# [8] = tested on: rape; experiment: Test B pre/postemergence rape; type: in vivo, Brassica napus
# Method in brief: as §1
# [9] = tested on: purple nutsedge; experiment: Test B pre/postemergence purple nutsedge; type: in vivo, Cyperus rotundus
# Method in brief: as §1
# [10] = tested on: blackgrass; experiment: Test E blackgrass; type: in vivo, Alopecurus myosuroides; conditions: Preemergence
# [11] = tested on: wild oat; experiment: Test E wild oat; type: in vivo, Avena fatua; conditions: Preemergence
# [12] = Rate 500 g/ha, 0 to 100 scale (0 no effect, 100 complete control)
# [13] = Rate 125 g/ha, 0 to 100 scale (0 no effect, 100 complete control)
# [14] = Postemergence, Rate 125 g/ha, scale 0 to 10, 0 is no effect, 10 is complete control
# [15] = Postemergence, Rate 250 g/ha, scale 0 to 10, 0 is no effect, 10 is complete control
# [16] = Postemergence, Rate 500 g/ha, scale of 0 to 10 where 0 is no effect and 10 is complete control
# [17] = Preemergence, Rate 62 g/ha, scale 0 to 10 (0 no effect, 10 complete control)
# [18] = Preemergence, Rate 250 g/ha, scale of 0 to 10 where 0 is no effect and 10 is complete control
# [19] = Preemergence, Rate 500 g/ha, scale of 0 to 10 where 0 is no effect and 10 is complete control
# [20] = Rate 62 g/ha, Postemergence, scale of 0 to 10 where 0 is no effect and 10 is complete control
# [21] = Rate 62 g/ha, 0 to 100 scale, 0 no effect, 100 complete control
# [22] = Preemergence, Rate 62 g/ha, scale of 0 to 10 where 0 is no effect and 10 is complete control
# [23] = Preemergence, Rate 125 g/ha, 0 is no effect, 10 is complete control
# [24] = Preemergence, Rate 250 g/ha, scale 0 to 10, 0 is no effect, 10 is complete control
# [25] = Rate 125 g/ha, Postemergence, scale 0 to 10
# [26] = Rate 500 g/ha, Postemergence, scale 0 to 10
smiles,measurement,setting,value
CC(C)N(C(=O)n1oc(=O)n(CCC#N)c1=O)c1ccc(F)cc1 [Compound 388],"Plant response rating, Ducksalad (0 to 10 scale, 0 is no effect, 10 is complete control)","[1]; Rate 62 g/ha, flood test species, Pre-emergence, visual evaluation after twelve to sixteen days",0
same,"Ducksalad plant response rating (0 to 10 scale, 0 is no effect, 10 is complete control)","[1]; Rate 125 g/ha, under heading Pre-emergence, flood test species, visual evaluation after twelve to sixteen days",0
same,Ducksalad plant response rating,"[1]; Rate 250 g/ha, Pre-emergence, flood-test species, scale 0 to 10, 0 is no effect, 10 is complete control",0
same,Ducksalad plant response rating,"[1]; Rate 500 g/ha, Pre-emergence, flood test species, scale 0 to 10 (0 no effect, 10 complete control)",0
same,"Plant response rating, Green foxtail","[2]; Rate 125 g/ha, 0 to 100 scale",30
same,"Plant response rating, Green foxtail","[2]; Rate 250 g/ha, 0 to 100 scale",40
same,"Plant response rating, Green foxtail",[2]; [12],85
same,"Plant response rating, Barley (winter)",[3]; [13],10
same,"Plant response rating, Barley (winter)","[3]; Rate 250 g/ha, 0 to 100 scale, 0 no effect, 100 complete control",20
same,"Plant response rating, Barley (winter)",[3]; [12],70
same,"Plant response rating, Sugarbeets",[4]; [14],0
same,"Plant response rating, Sugarbeets",[4]; [15],0
same,Sugarbeets plant response rating,[4]; [16],4
same,"Plant response rating, Sugarbeets",[4]; [17],0
same,Sugarbeets plant response rating (0 to 10 scale),"[4]; Preemergence, Rate 125 g/ha",2
same,Sugarbeets plant response rating,[4]; [18],3
same,Sugarbeets plant response rating,[4]; [19],6
same,Sugarbeets plant response rating,[4]; [20],0
same,"Plant response rating, Wheat (winter)","[5]; Rate 125 g/ha, 0 is no effect, 100 is complete control",30
same,"Plant response rating, Wheat (winter)","[5]; Rate 250 g/ha, 0 is no effect, 100 is complete control",30
same,"Plant response rating, Wheat (winter)","[5]; Rate 500 g/ha, 0 is no effect, 100 is complete control",65
same,"Plant response rating, I. Ryegrass","[6]; Rate 125 g/ha, 0 to 100 scale",30
same,"Plant response rating, I. Ryegrass","[6]; Rate 250 g/ha, 0 to 100 scale",40
same,"Plant response rating, I. Ryegrass",[6]; [12],60
same,"Plant response rating, Wheat (winter)","[7]; Rate 125 g/ha, 0 to 100 scale",50
same,"Plant response rating, Wheat (winter)","[7]; Rate 250 g/ha, 0 to 100 scale",50
same,"Plant response rating, Wheat (winter)",[7]; [12],60
same,"Plant response rating, Rape",[8]; [14],0
same,Rape plant response rating,[8]; [16],0
same,"Plant response rating, Rape",[8]; [17],0
same,Rape plant response rating (0 to 10 scale),"[8]; Preemergence, Rate 125 g/ha",0
same,Rape plant response rating,[8]; [18],2
same,Rape plant response rating,[8]; [19],8
same,Rape plant response rating,[8]; [20],0
same,"Plant response rating, Nutsedge",[9]; [15],5
same,Nutsedge plant response rating,[9]; [16],6
same,"Plant response rating, Nutsedge",[9]; [17],0
same,Nutsedge plant response rating (0 to 10 scale),"[9]; Preemergence, Rate 125 g/ha",0
same,Nutsedge plant response rating,[9]; [18],0
same,"Plant response rating, Blackgrass","[10]; Rate 125 g/ha, 0 to 100 scale",0
same,"Plant response rating, Blackgrass","[10]; Rate 250 g/ha, 0 to 100 scale",0
same,"Plant response rating, Blackgrass",[10]; [12],40
same,"Plant response rating, Wild oat","[11]; Rate 125 g/ha, 0 to 100 scale",20
same,"Plant response rating, Wild oat","[11]; Rate 250 g/ha, 0 to 100 scale",20
same,"Plant response rating, Wild oat",[11]; [12],30
C=C(C)CCn1c(=O)on(C(=O)N(c2ccc(F)cc2)C(C)C)c1=O [Compound 199],Ducksalad plant response rating,"[1]; Rate 62 g/ha, Postemergence section, flood test species, scale of 0 to 10 where 0 is no effect and 10 is complete control",0
same,Ducksalad plant response rating,"[1]; Rate 125 g/ha, listed under Postemergence (flood test species), scale 0 to 10",0
same,"Plant response rating (0 to 10; 0 is no effect, 10 is complete control), Ducksalad","[1]; Rate 250 g/ha, Postemergence section, flood test species",0
same,Ducksalad plant response rating,"[1]; Rate 500 g/ha, listed under Postemergence (flood test species), scale 0 to 10",2
same,"Plant response rating, Green foxtail",[2]; [21],100
same,"Plant response rating, Green foxtail",[2]; [13],100
same,Green foxtail plant response rating (0 to 100 scale),[2]; Rate 250 g/ha,100
same,"Plant response rating, Barley (winter)",[3]; [21],70
same,"Plant response rating, Barley (winter)",[3]; [13],70
same,Barley (winter) plant response rating (0 to 100 scale),[3]; Rate 250 g/ha,70
same,Sugarbeets plant response rating,[4]; [22],4
same,Sugarbeets plant response rating (0 to 10 scale),[4]; [23],5
same,Sugarbeets plant response rating,[4]; [24],5
same,"Plant response rating, Sugarbeets",[4]; [19],6
same,Sugarbeets plant response rating,[4]; [20],0
same,Sugarbeets plant response rating,[4]; [25],0
same,"Plant response rating (0 to 10; 0 is no effect, 10 is complete control), Sugarbeets","[4]; Rate 250 g/ha, Postemergence",0
same,Sugarbeets plant response rating,[4]; [26],2
same,"Plant response rating, Wheat (winter)",[5]; Rate 62 g/ha,50
same,"Plant response rating, Wheat (winter)",[5]; Rate 125 g/ha,55
same,"Plant response rating, I. Ryegrass",[6]; [21],70
same,"Plant response rating, I. Ryegrass",[6]; [13],60
same,I. Ryegrass plant response rating (0 to 100 scale),[6]; Rate 250 g/ha,70
same,"Plant response rating, Wheat (winter)",[7]; [21],60
same,"Plant response rating, Wheat (winter)",[7]; [13],70
same,Wheat (winter) plant response rating (0 to 100 scale),[7]; Rate 250 g/ha,50
same,Rape plant response rating,[8]; [22],0
same,Rape plant response rating (0 to 10 scale),[8]; [23],0
same,Rape plant response rating,[8]; [24],0
same,"Plant response rating, Rape",[8]; [19],0
same,Rape plant response rating,[8]; [20],0
same,Rape plant response rating,[8]; [25],0
same,"Plant response rating (0 to 10; 0 is no effect, 10 is complete control), Rape","[8]; Rate 250 g/ha, Postemergence",0
same,Rape plant response rating,[8]; [26],0
same,Nutsedge plant response rating,[9]; [22],0
same,Nutsedge plant response rating (0 to 10 scale),[9]; [23],0
same,Nutsedge plant response rating,[9]; [24],0
same,"Plant response rating, Nutsedge",[9]; [19],10
same,Nutsedge plant response rating,[9]; [20],0
same,Nutsedge plant response rating,[9]; [25],0
same,"Plant response rating (0 to 10; 0 is no effect, 10 is complete control), Nutsedge","[9]; Rate 250 g/ha, Postemergence",0
same,Nutsedge plant response rating,[9]; [26],0
same,"Plant response rating, Blackgrass",[10]; [21],60
same,"Plant response rating, Blackgrass",[10]; [13],65
same,Blackgrass plant response rating (0 to 100 scale),[10]; Rate 250 g/ha,60
same,"Plant response rating, Wild oat",[11]; [21],60
same,"Plant response rating, Wild oat",[11]; [13],70
same,Wild oat plant response rating (0 to 100 scale),[11]; Rate 250 g/ha,80
